According to the supplement of paper PMC11061612:

Columns and labels:
Experiment in all cases: combination Emax (second highest fraction inhibited in the dose matrix, 72 h); higher = more inhibition; extreme values may be limits of the assay
[1] = system: NCI-H82 (Small Cell Lung Carcinoma)
Procedure, shortened: (§1)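 Bliss excess equals the observed combination effect minus the expected value EA + EB − EA·EB, where EA and EB are the effects of each agent alone. Combination Emax is the second-highest inhibition within the matrix. Inhibition was scaled from CellTiter-Glo 2.0 luminescence, with 0 set by vehicle wells and 1 by blank wells, after 72 hours of two-drug dosing of cells plated in 1536-well plates.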

[2] = system: CaR-1 (Colorectal Carcinoma)
Procedure, shortened: as §1

[3] = system: LB831-BLC (Bladder Carcinoma)
Procedure, shortened: as §1

[4] = system: HCC1806 (Breast Carcinoma)
Procedure, shortened: as §1

KELLY (Neuroblastoma) = system: KELLY (Neuroblastoma)
Procedure, shortened: as §1

[5] = system: DoTc2-4510 (Cervical Carcinoma)
Procedure, shortened: as §1

[6] = system: RC-K8 (B-Cell Non-Hodgkin's Lymphoma)
Procedure, shortened: as §1

[7] = system: OVCA420 (Ovarian Carcinoma)
Procedure, shortened: as §1

[8] = system: CAL-148 (Breast Carcinoma)
Procedure, shortened: as §1

[9] = system: TE-9 (Esophageal Squamous Cell Carcinoma)
Procedure, shortened: as §1

[10] = system: KYSE-520 (Esophageal Squamous Cell Carcinoma)
Procedure, shortened: as §1

[11] = system: LNCaP-Clone-FGC (Prostate Carcinoma)
Procedure, shortened: as §1

Structure (SMILES) | combination Emax [1] | combination Emax [2] | combination Emax [3] | combination Emax [4] | combination Emax (KELLY (Neuroblastoma)) | combination Emax [5] | combination Emax [6] | combination Emax [7] | combination Emax [8] | combination Emax [9] | combination Emax [10] | combination Emax [11]
CN(CCO)CC[C@H](CSc1ccccc1)Nc1ccc(S(=O)(=O)NC(=O)c2ccc(N3CCC([C@@H](O)c4ccccc4-c4ccc(Cl)cc4)CC3)cc2)cc1S(=O)(=O)C(F)(F)F [AZD4320] + C1CN(CCC1(C(=O)N[C@@H](CCO)C2=CC=C(C=C2)Cl)N)C3=NC=NC4=C3C=CN4 [Capivasertib] (first compound max 1 µM, 7x7, partner max 3 µM) | 0.255 | 0.21 | 0.338 | 0.212 | 0.229 | 0.59 | 0.552 | 0.0769 | 1 | 0.356 | 0.329 | 0.97
CN(CCO)CC[C@H](CSc1ccccc1)Nc1ccc(S(=O)(=O)NC(=O)c2ccc(N3CCC([C@@H](O)c4ccccc4-c4ccc(Cl)cc4)CC3)cc2)cc1S(=O)(=O)C(F)(F)F [AZD4320] + C=CCn1c(=O)c2cnc(Nc3ccc(N4CCN(C)CC4)cc3)nc2n1-c1cccc(C(C)(C)O)n1 [AZD1775] (first compound max 1 µM, partner max 1 µM) | 0.932 | 0.241 | 0.634 | 0.972 | 1 | 0.884 | 0.934 | 0.37 | 0.994 | 0.34 | 0.552 | 0.773
CN(CCO)CC[C@H](CSc1ccccc1)Nc1ccc(S(=O)(=O)NC(=O)c2ccc(N3CCC([C@@H](O)c4ccccc4-c4ccc(Cl)cc4)CC3)cc2)cc1S(=O)(=O)C(F)(F)F [AZD4320] + CCN(CCO)CCCOc1ccc2c(Nc3cc(CC(=O)Nc4cccc(F)c4)[nH]n3)ncnc2c1 [AZD2811] (first compound max 1 µM, 7x7, partner max 1 µM) | 0.512 | 0.208 | 0.526 | 0.201 | 0.892 | 0.735 | 0.917 | 0.174 | 1 | 0.451 | 0.292 | 0.245
CN(CCO)CC[C@H](CSc1ccccc1)Nc1ccc(S(=O)(=O)NC(=O)c2ccc(N3CCC([C@@H](O)c4ccccc4-c4ccc(Cl)cc4)CC3)cc2)cc1S(=O)(=O)C(F)(F)F [AZD4320] + CN(C)CCCOc1ccc(-c2ccc3ncc4c(c3c2)n(C2CCOCC2)c(=O)n4C)cn1 [AZD0156] (first compound max 1 µM, 7x7, partner max 1 µM) | 0.282 | 0.0707 | 0.286 | 0.133 | 0.597 | 0.6 | 0.407 | 0.174 | 0.504 | 0.263 | 0.157 | 0.335
CN(CCO)CC[C@H](CSc1ccccc1)Nc1ccc(S(=O)(=O)NC(=O)c2ccc(N3CCC([C@@H](O)c4ccccc4-c4ccc(Cl)cc4)CC3)cc2)cc1S(=O)(=O)C(F)(F)F [AZD4320] + C[C@@H]1COCCN1C2=NC(=NC(=C2)C3(CC3)[S@](=N)(=O)C)C4=C5C=CNC5=NC=C4 [AZD6738] (first compound max 1 µM, 7x7, partner max 10 µM) | 0.932 | 0.514 | 0.381 | 0.972 | 0.982 | 0.912 | 0.956 | 0.516 | 0.978 | 0.372 | 0.672 | 0.782
CN(CCO)CC[C@H](CSc1ccccc1)Nc1ccc(S(=O)(=O)NC(=O)c2ccc(N3CCC([C@@H](O)c4ccccc4-c4ccc(Cl)cc4)CC3)cc2)cc1S(=O)(=O)C(F)(F)F [AZD4320] + C[C@@H](Nc1cc(F)cc(F)c1)c1cc(C(=O)N(C)C)cc2c(=O)cc(N3CCOCC3)oc12 [AZD8186] (first compound max 1 µM, 7x7, partner max 3 µM) | 0.231 | 0.246 | 0.532 | 0.696 | 0.7 | 0.911 | 0.999 | 0.261 | 0.996 | 0.312 | 0.34 | 0.912
CN(CCO)CC[C@H](CSc1ccccc1)Nc1ccc(S(=O)(=O)NC(=O)c2ccc(N3CCC([C@@H](O)c4ccccc4-c4ccc(Cl)cc4)CC3)cc2)cc1S(=O)(=O)C(F)(F)F [AZD4320] + Cc1cc2ncnn2cc1Nc1ncc2c(n1)n(C1CCOCC1)c(=O)n2C [AZD7648] (first compound max 1 µM, 7x7, partner max 10 µM) | 0.299 | 0.125 | 0.214 | 0.0765 | 0.493 | 0.499 | 0.596 | 0.157 | 0.744 | 0.246 | 0.23 | 0.415
CN(CCO)CC[C@H](CSc1ccccc1)Nc1ccc(S(=O)(=O)NC(=O)c2ccc(N3CCC([C@@H](O)c4ccccc4-c4ccc(Cl)cc4)CC3)cc2)cc1S(=O)(=O)C(F)(F)F [AZD4320] + Cn1cnc2c(F)c(Nc3ccc(Br)cc3Cl)c(C(=O)NOCCO)cc21 [Selumetinib] (first compound max 1 µM, 7x7, partner max 3 µM) | 0.265 | 0.294 | 0.373 | 0.795 | 0.737 | 0.906 | 0.993 | 0.451 | 0.996 | 0.438 | 0.401 | 0.414
